# Measured values taken from PubChem BioAssay (NCI).
#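 Tested at 5 concentrations; 48 h exposure; 96-well plates; endpoints linearly interpolated, else capped at highest concentration. Definition used: TGI = concentration required for complete inhibition of growth.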
# What was measured:
# Experiment in all cases: NCI anticancer screen, dose series, 48 h
# OVCAR-8 ovarian = test system: OVCAR-8 ovarian
# HL-60(TB) leukemia = test system: HL-60(TB) leukemia
# SNB-75 CNS = test system: SNB-75 CNS
# U251 CNS = test system: U251 CNS
# SR leukemia = test system: SR leukemia
# NCI/ADR-RES ovarian = test system: NCI/ADR-RES ovarian
# BT-549 breast = test system: BT-549 breast
# EKVX NSCLC = test system: EKVX NSCLC
# NCI-H226 lung = test system: NCI-H226 lung
# SK-MEL-5 melanoma = test system: SK-MEL-5 melanoma
# RXF 393 renal = test system: RXF 393 renal
# SN12C renal = test system: SN12C renal
Compound,TGI (OVCAR-8 ovarian),TGI (HL-60(TB) leukemia),TGI (SNB-75 CNS),TGI (U251 CNS),TGI (SR leukemia),TGI (NCI/ADR-RES ovarian),TGI (BT-549 breast),TGI (EKVX NSCLC),TGI (NCI-H226 lung),TGI (SK-MEL-5 melanoma),TGI (RXF 393 renal),TGI (SN12C renal)
O=c1ccn(CC2(CO)CCCC2)c(=O)[nH]1,> 100 µM,> 100 µM,> 100 µM,> 100 µM,> 100 µM,> 100 µM,> 100 µM,> 100 µM,> 100 µM,> 100 µM,> 100 µM,> 100 µM
Cc1c2ccnc(C(=O)NCCN(C)C)c2cc2c3cc(O)ccc3n(C)c12,4.06 µM,0.532 µM,2.19 µM,2.43 µM,< 0.0564 µM,6.64 µM,10.7 µM,5.18 µM,2.26 µM,1.45 µM,2.31 µM,2.15 µM
CC(=O)Nc1ccc(NS(=O)(=O)c2ccc3nc(C)n(NS(=O)(=O)c4ccc(NC(C)=O)cc4)c(=O)c3c2)cc1,> 100 µM,> 100 µM,> 100 µM,> 100 µM,> 100 µM,> 100 µM,> 100 µM,> 100 µM,> 100 µM,> 100 µM,> 100 µM,> 100 µM
Cc1sc2[nH]c(=O)oc(=O)c2c1C,> 100 µM,> 100 µM,> 100 µM,> 100 µM,> 100 µM,> 100 µM,> 86.6 µM,> 100 µM,> 100 µM,> 100 µM,> 100 µM,> 100 µM
Cn1c(NNc2ccccc2)cc(=O)[nH]c1=O,> 100 µM,> 100 µM,> 100 µM,> 100 µM,> 100 µM,> 100 µM,> 100 µM,> 100 µM,> 100 µM,70.1 µM,> 100 µM,> 100 µM
COC(=O)/C(=N\NC(N)=O)C(C(=O)C(=O)Nc1ccccc1OC)c1nc2ccc([N+](=O)[O-])cc2[nH]c1=O (stereo not drawn),> 100 µM,> 100 µM,> 100 µM,> 100 µM,> 100 µM,> 100 µM,> 100 µM,> 100 µM,> 100 µM,> 100 µM,> 100 µM,> 100 µM
CCN(CC)C(=O)Cn1c(-c2ccccc2)cc2ccccc21,> 100 µM,> 100 µM,> 100 µM,> 100 µM,> 100 µM,> 100 µM,94.5 µM,> 100 µM,> 100 µM,31.9 µM,97.4 µM,> 100 µM
CCCCCCCCCCCCCCCCCCNc1ccn(C2OC(COP(=O)(O)OCC3OC(n4cc(C)c(=O)[nH]c4=O)CC3F)C(O)C2O)c(=O)n1 (stereo not drawn),29.3 µM,19.3 µM,37.6 µM,15 µM,5.14 µM,45.9 µM,11 µM,20.7 µM,59.5 µM,44.9 µM,3.84 µM,39.7 µM
C[Si](C)(C)C#Cc1cc(-c2nc3ccccc3s2)ccc1N,32.3 µM,50 µM,27.5 µM,37.9 µM,67.8 µM,32.3 µM,33.1 µM,25.7 µM,31.2 µM,29.4 µM,32.8 µM,30.1 µM
